# According to patent US20240376084A1, “INHIBITORS OF ALPHA-HEMOLYSIN OF STAPHYLOCOCCUS AUREUS” (Helmholtz-Zentrum Fur Infektionsforschung GmbH, priority 2021, published 2024):
# Tests used:
# [1] = target: S. aureus Alpha hemolysin (Staphylococcus aureus, UniProt P09616); experiment: cell-based; settings: A549-LDH Assay activity
# [2] = target: hemolysin alpha from Staphylococcus aureus (Staphylococcus aureus, UniProt P09616); experiment: cell-based
# Sequence of hemolysin alpha from Staphylococcus aureus (P09616 27-319 limits assumed): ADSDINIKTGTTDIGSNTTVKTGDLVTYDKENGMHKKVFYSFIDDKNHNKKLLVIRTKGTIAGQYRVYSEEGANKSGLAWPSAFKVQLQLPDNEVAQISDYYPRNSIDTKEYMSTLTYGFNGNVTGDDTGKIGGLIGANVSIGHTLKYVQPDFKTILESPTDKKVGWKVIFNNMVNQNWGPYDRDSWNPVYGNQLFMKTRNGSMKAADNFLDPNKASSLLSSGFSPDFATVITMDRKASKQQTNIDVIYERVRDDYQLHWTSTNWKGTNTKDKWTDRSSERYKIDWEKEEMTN
# Sequence of S. aureus Alpha hemolysin (P09616 27-319 limits assumed): as above
Compound,EC50 [1],IC50 [2]
"Cc1cc2[nH]c(=O)c(=O)[nH]c2c(F)c1S(=O)(=O)Nc1ccc(Br)c(Cl)c1 [Compound 63, N-(4-bromo-3-chlorophenyl)-5-fluoro-7-methyl-2,3-dioxo-1,2,3,4-tetrahydroquinoxaline-6-sulfonamide]",1 to 6 µM,0.03 to 0.1 µM
"O=c1[nH]c2cc(F)c(S(=O)(=O)Nc3ccc(-c4ccccc4)cc3)cc2[nH]c1=O [Compound 64, N-([1,1′-biphenyl]-4-yl)-7-fluoro-2,3-dioxo-1,2,3,4-tetrahydroquinoxaline-6-sulfonamide]",0.1 to 1 µM,0.03 to 0.1 µM
"O=c1[nH]c2cc(F)c(S(=O)(=O)Nc3ccc(-c4cccc(Cl)c4)c(Cl)c3)cc2[nH]c1=O [Compound 65, N-(2,3′-dichloro-[1,1′-biphenyl]-4-yl)-7-fluoro-2,3-dioxo-1,2,3,4-tetrahydroquinoxaline-6-sulfonamide]",1 to 6 µM,0.03 to 0.1 µM
"Cc1cc2[nH]c(=O)c(=O)[nH]c2cc1S(=O)(=O)Nc1ccc(-c2cncnc2)c(Cl)c1 [Compound 66, N-(3-chloro-4-(pyrimidin-5-yl)phenyl)-7-methyl-2,3-dioxo-1,2,3,4-tetrahydroquinoxaline-6-sulfonamide]",0.1 to 1 µM,0.03 to 0.1 µM
"CCc1cc2[nH]c(=O)c(=O)[nH]c2cc1S(=O)(=O)Nc1ccc(C2CC2)cc1 [Compound 67, N-(4-cyclopropylphenyl)-7-ethyl-2,3-dioxo-1,2,3,4-tetrahydroquinoxaline-6-sulfonamide]",0.03 to 0.1 µM,0.03 to 0.1 µM
"O=c1[nH]c2cc(F)c(S(=O)(=O)Nc3ccc(C4CC4)cc3)cc2[nH]c1=O [Compound 68, N-(4-cyclopropylphenyl)-7-fluoro-2,3-dioxo-1,2,3,4-tetrahydroquinoxaline-6-sulfonamide]",0.1 to 1 µM,0.03 to 0.1 µM
"Cc1ccc(-c2ccc(NS(=O)(=O)c3cc4[nH]c(=O)c(=O)[nH]c4cc3C)cc2Cl)o1 [Compound 69, N-(3-chloro-4-(5-methylfuran-2-yl)phenyl)-7-methyl-2,3-dioxo-1,2,3,4-tetrahydroquinoxaline-6-sulfonamide]",1 to 6 µM,0.03 to 0.1 µM
"Cc1ccc(-c2c(C)cc(NS(=O)(=O)c3cc4[nH]c(=O)c(=O)[nH]c4cc3C)cc2C)s1 [Compound 70, N-(3,5-dimethyl-4-(5-methylthiophen-2-yl)phenyl)-7-methyl-2,3-dioxo-1,2,3,4-tetrahydroquinoxaline-6-sulfonamide]",0.1 to 1 µM,0.03 to 0.1 µM
"O=c1[nH]c2cc(F)c(S(=O)(=O)Nc3ccc(C4CCCCC4)cc3)cc2[nH]c1=O [Compound 71, N-(4-cyclohexylphenyl)-7-fluoro-2,3-dioxo-1,2,3,4-tetrahydroquinoxaline-6-sulfonamide]",0.1 to 1 µM,0.1 to 1 µM
"COc1ccccc1-c1ccc(NS(=O)(=O)c2cc3[nH]c(=O)c(=O)[nH]c3cc2C)cc1Cl [Compound 72, N-(2-chloro-2′-methoxy-[1,1′-biphenyl]-4-yl)-7-methyl-2,3-dioxo-1,2,3,4-tetrahydroquinoxaline-6-sulfonamide]",0.1 to 1 µM,0.1 to 1 µM
"Cc1cc2[nH]c(=O)c(=O)[nH]c2cc1S(=O)(=O)Nc1cc(C)c(-c2ccccc2)c(C)c1 [Compound 73, N-(2,6-dimethyl-[1,1′-biphenyl]-4-yl)-7-methyl-2,3-dioxo-1,2,3,4-tetrahydroquinoxaline-6-sulfonamide]",0.1 to 1 µM,0.1 to 1 µM
"Cc1cc(NS(=O)(=O)c2cc3[nH]c(=O)c(=O)[nH]c3cc2F)cc(C)c1-c1ccccc1 [Compound 74, N-(2,6-dimethyl-[1,1′-biphenyl]-4-yl)-7-fluoro-2,3-dioxo-1,2,3,4-tetrahydroquinoxaline-6-sulfonamide]",0.1 to 1 µM,0.1 to 1 µM
"Cc1cc2[nH]c(=O)c(=O)[nH]c2cc1S(=O)(=O)Nc1ccc(Br)c(Cl)c1 [Compound 75, N-(4-bromo-3-chlorophenyl)-7-methyl-2,3-dioxo-1,2,3,4-tetrahydroquinoxaline-6-sulfonamide]",0.1 to 1 µM,0.1 to 1 µM
"Cc1cc2[nH]c(=O)c(=O)[nH]c2cc1S(=O)(=O)Nc1ccc(C(C)C)cc1 [Compound 76, N-(4-isopropylphenyl)-7-methyl-2,3-dioxo-1,2,3,4-tetrahydroquinoxaline-6-sulfonamide]",0.1 to 1 µM,0.1 to 1 µM
"Cc1cc2[nH]c(=O)c(=O)[nH]c2cc1S(=O)(=O)Nc1ccc(-c2ccccc2Cl)c(Cl)c1 [Compound 77, N-(2,2′-dichloro-[1,1′-biphenyl]-4-yl)-7-methyl-2,3-dioxo-1,2,3,4-tetrahydroquinoxaline-6-sulfonamide]",0.1 to 1 µM,0.1 to 1 µM
"Cc1cc2[nH]c(=O)c(=O)[nH]c2cc1S(=O)(=O)Nc1ccc(-c2ccccc2CO)c(Cl)c1 [Compound 78, N-(2-chloro-2′-(hydroxymethyl)-[1,1′-biphenyl]-4-yl)-7-methyl-2,3-dioxo-1,2,3,4-tetrahydroquinoxaline-6-sulfonamide]",0.1 to 1 µM,0.1 to 1 µM
"Cc1cc2[nH]c(=O)c(=O)[nH]c2cc1S(=O)(=O)Nc1ccc2c(c1)CCC2 [Compound 79, N-(2,3-dihydro-1H-inden-5-yl)-7-methyl-2,3-dioxo-1,2,3,4-tetrahydroquinoxaline-6-sulfonamide]",0.03 to 0.1 µM,0.1 to 1 µM

Compound,EC50 [1],IC50 [2]
"COc1cc(NS(=O)(=O)c2cc3[nH]c(=O)c(=O)[nH]c3cc2C)ccc1-c1ccccc1 [Compound 81, N-(2-methoxy-[1,1′-biphenyl]-4-yl)-7-methyl-2,3-dioxo-1,2,3,4-tetrahydroquinoxaline-6-sulfonamide]",0.1 to 1 µM,0.1 to 1 µM
"O=c1[nH]c2cc(F)c(S(=O)(=O)Nc3ccc(-c4ccsc4)c(Cl)c3)cc2[nH]c1=O [Compound 82, N-(3-chloro-4-(thiophen-3-yl)phenyl)-7-fluoro-2,3-dioxo-1,2,3,4-tetrahydroquinoxaline-6-sulfonamide]",1 to 6 µM,0.1 to 1 µM
"Cc1cc2[nH]c(=O)c(=O)[nH]c2cc1S(=O)(=O)Nc1ccc(C(C)(C)C)cc1 [Compound 83, N-(4-(tert-butyl)phenyl)-7-methyl-2,3-dioxo-1,2,3,4-tetrahydroquinoxaline-6-sulfonamide]",0.03 to 0.1 µM,0.1 to 1 µM
"Cc1ccc(-c2c(C)cc(NS(=O)(=O)c3cc4[nH]c(=O)c(=O)[nH]c4cc3C)cc2C)o1 [Compound 84, N-(3,5-dimethyl-4-(5-methylfuran-2-yl)phenyl)-7-methyl-2,3-dioxo-1,2,3,4-tetrahydroquinoxaline-6-sulfonamide]",0.1 to 1 µM,0.1 to 1 µM
"O=c1[nH]c2cc(Cl)c(S(=O)(=O)Nc3ccc(C4CC4)cc3)cc2[nH]c1=O [Compound 85, 7-chloro-N-(4-cyclopropylphenyl)-2,3-dioxo-1,2,3,4-tetrahydroquinoxaline-6-sulfonamide]",0.03 to 0.1 µM,0.1 to 1 µM
"Cc1cc2[nH]c(=O)c(=O)[nH]c2cc1S(=O)(=O)Nc1ccc(C2CCCCC2)cc1 [Compound 86, N-(4-cyclohexylphenyl)-7-methyl-2,3-dioxo-1,2,3,4-tetrahydroquinoxaline-6-sulfonamide]",0.1 to 1 µM,0.1 to 1 µM
"CCCc1ccc(NS(=O)(=O)c2cc3[nH]c(=O)c(=O)[nH]c3cc2F)cc1 [Compound 87, 7-fluoro-2,3-dioxo-N-(4-propylphenyl)-1,2,3,4-tetrahydroquinoxaline-6-sulfonamide]",0.03 to 0.1 µM,0.1 to 1 µM
"Cc1cc(NS(=O)(=O)c2cc3[nH]c(=O)c(=O)[nH]c3cc2Cl)ccc1-c1ccoc1 [Compound 88, 7-chloro-N-(4-(furan-3-yl)-3-methylphenyl)-2,3-dioxo-1,2,3,4-tetrahydroquinoxaline-6-sulfonamide]",0.1 to 1 µM,0.03 to 0.1 µM
"Cc1ccccc1-c1ccc(NS(=O)(=O)c2cc3[nH]c(=O)c(=O)[nH]c3cc2C)cc1 [Compound 89, 7-methyl-N-(2′-methyl-[1,1′-biphenyl]-4-yl)-2,3-dioxo-1,2,3,4-tetrahydroquinoxaline-6-sulfonamide]",0.1 to 1 µM,0.1 to 1 µM
"Cc1ccccc1-c1ccc(NS(=O)(=O)c2cc3[nH]c(=O)c(=O)[nH]c3cc2C)cc1Cl [Compound 90, N-(2-chloro-2′-methyl-[1,1′-biphenyl]-4-yl)-7-methyl-2,3-dioxo-1,2,3,4-tetrahydroquinoxaline-6-sulfonamide]",0.1 to 1 µM,0.1 to 1 µM
"Cc1cc(NS(=O)(=O)c2cc3[nH]c(=O)c(=O)[nH]c3cc2C)ccc1C(F)(F)F [Compound 91, 7-methyl-N-(3-methyl-4-(trifluoromethyl)phenyl)-2,3-dioxo-1,2,3,4-tetrahydroquinoxaline-6-sulfonamide]",0.1 to 1 µM,0.1 to 1 µM
"CCc1ccc(NS(=O)(=O)c2cc3[nH]c(=O)c(=O)[nH]c3cc2C)cc1 [Compound 92, N-(4-ethylphenyl)-7-methyl-2,3-dioxo-1,2,3,4-tetrahydroquinoxaline-6-sulfonamide]",< 0.03 µM,< 0.03 µM
"O=c1[nH]c2cc(Cl)c(S(=O)(=O)Nc3ccc(C(F)(F)F)cc3)cc2[nH]c1=O [Compound 93, 7-chloro-2,3-dioxo-N-(4-(trifluoromethyl)phenyl)-1,2,3,4-tetrahydroquinoxaline-6-sulfonamide]",0.1 to 1 µM,0.1 to 1 µM
"O=c1[nH]c2cc(Cl)c(S(=O)(=O)Nc3ccc(-c4ccncc4)c(Cl)c3)cc2[nH]c1=O [Compound 94, 7-chloro-N-(3-chloro-4-(pyridin-4-yl)phenyl)-2,3-dioxo-1,2,3,4-tetrahydroquinoxaline-6-sulfonamide]",0.1 to 1 µM,0.1 to 1 µM
"Cc1cc2[nH]c(=O)c(=O)[nH]c2cc1S(=O)(=O)Nc1ccc(Br)cc1 [Compound 97, N-(4-bromophenyl)-7-methyl-2,3-dioxo-1,2,3,4-tetrahydroquinoxaline-6-sulfonamide]",0.03 to 0.1 µM,0.1 to 1 µM
"O=c1[nH]c2cc(Cl)c(S(=O)(=O)Nc3ccc(-c4ccccc4)cc3)cc2[nH]c1=O [Compound 98, N-([1,1′-biphenyl]-4-yl)-7-chloro-2,3-dioxo-1,2,3,4-tetrahydroquinoxaline-6-sulfonamide]",0.1 to 1 µM,0.1 to 1 µM
